Where “and” joins values, the source holds several entries; their conditions need not be identical. Equal values may be shown once. Read-outs that look alike come from different tables or passages of the source.
What was measured:
human erythrocytes = experiment: Hemolysis assay; format: cell-based; conditions: 500 μM; Triton X-100 positive control
Protocol: To determine the surfactant power of the substances present in biological membranes, a hemolysis test was carried out with human blood approved by the Research Ethics Committee of the Universidade Federal Fluminense (CAAE: 43134721.4.0000.5626). Erythrocytes were collected for centrifugation at 1500 rpm for 15 min, washed with PBS (phosphate-buffered saline) supplemented with 10 mM glucose, and counted in an automatic cell counter (Thermo Fisher, Waltham, MA, USA). […] In total, 10 μL of PBS was used as a negative control, and 10 μL of PBS with 0.1% Triton x 100 was used as a positive control. Data reading was performed with EPOCH (BioTek Instruments, Winooski, VT, USA) at an absorbance of 540 nm, and statistical data were generated using […] Prism 8.4.3.0 program (Intuitive Software for Science, San Diego, CA, USA).

SCC-9 cells (OSCC cells) = experiment: MTT cell viability assay, SCC-9; format: cell-based, human; conditions: for SI (SCC-9): IC50 normal oral fibroblast / IC50 SCC-9
Protocol: (§1) Human SCC-4, SCC-9, and SCC-25 cells, derived from a human oral tongue SCC (squamous cell carcinoma), were obtained from ATCC (CRL-1624, CRL-1629, and CRL-1628, respectively) and maintained in 1:1 DMEM/F12 (Dulbecco’s modified Eagle’s medium and Ham’s F12 medium; Gibco (Thermo Fisher, Waltham, MA, USA)) supplemented with 10% (v/v) FBS (fetal bovine serum; Invitrogen, Thermo Fisher, Waltham, MA, USA) and 400 ng/mL hydrocortisone (Sigma-Aldrich Corporation, St. Louis, MO, USA). B16-F10 (melanoma; CRL-6475), HCT-116 (colorectal cancer; CCL-247), and HepG2 (liver cancer; HB-8065), in addition to primary normal human gingival fibroblasts obtained from ATCC (PCS-201-018), were maintained in DMEM supplemented with 10% (v/v) of FBS and were used in a maximum of six passages. Cells were grown in a humidified environment containing 5% CO2 at 37 °C. For all biological assays, compounds and shikonin were solubilized in 100% DMSO (all Sigma-Aldrich Corp.) to a final concentration of 10 mM and lapachol in ethanol. The carboplatin control was prepared in water (Fauldcarbo; Libbs Farmacêutica, São Paulo, SP, Brazil) and was used as a standard anticancer compound.
(§2) The viability of OSCC cell lines and primary human fibroblast cells was assessed using the MTT assay as in ref . Briefly, cells were grown in triplicate in 96-well plates (5 × 10^3 cells/well) until confluence. Then, the medium was removed, fresh medium was added, and the cells were returned to the incubator in the presence of different compounds. DMSO at the same concentration was used as a control for 100% cell viability. After 72 h, cells were incubated with 0.5 mg/mL of MTT reagent (3-(4,5-dimethyl-2-thiazolyl)-2,5-diphenyl-2-H-tetrazolium bromide) (Sigma-Aldrich Corporation, Louis, MO, USA) for 3.5 h. Then, the wells containing the cells were washed with PBS heated to 37 °C, the formazan crystals were dissolved in a solvent solution (DMSO/methanol 1:1 v/v), and the absorbance was read at 560 nm using an EPOCH microplate spectrophotometer (BioTek Instruments, Winooski, VT, USA) with the background absorbance at 670 nm subtracted. Control chemotherapeutics (carboplatin and shikonin) were used.
(§3) Data are presented as means ± SD. IC50 values for the MTT assays were obtained by nonlinear regression using the […] 8.4.3.0 program (Intuitive Software for Science, San Diego, CA, USA) from at least three independent experiments. A dose–response curve (inhibitor) vs response using the least-squares method was used to determine the IC50, SD, and R2 of the data. The selectivity index was calculated as SI = IC50 of the compound in normal oral fibroblast cells/IC50 of the same compound for each oral cancer cell line (SCC-4, SCC-9, and SCC-25) and averaged when indicated.

[1] = test system: primary normal human gingival fibroblasts; experiment: MTT cell viability assay, primary gingival fibroblasts; format: cell-based; conditions: 72 h, read-out: IC50 primary gingival fibroblast
Protocol: as §1, §2, §3

SCC-25 cells = experiment: MTT cell viability assay, SCC-25; format: cell-based, human; conditions: for IC50: read-out: IC50 SCC-25
Protocol: as §1, §2, §3

SCC-4 cells = experiment: MTT cell viability assay, SCC-4; format: cell-based, human; conditions: for IC50: read-out: IC50 SCC-4
Protocol: as §1, §2, §3

[2] = test system: OSCC cell lines (SCC-4, SCC-9, and SCC-25); experiment: Average selectivity index over three OSCC cell lines (MTT); format: cell-based, human; conditions: average of SI for SCC-4, SCC-9 and SCC-25 vs normal oral fibroblasts
Protocol: as §1, §2, §3

[3] = test system: HCT-116 (colorectal cancer); experiment: MTT cytotoxicity/selectivity, HCT-116; format: cell-based; conditions: vs normal oral fibroblasts
Protocol: as §1
as §2, with “DMSO at the same concentration was used as a control for 100% cell viability. After 72 h, cells were incubated with 0.5 mg/mL of MTT reagent (3-(4,5-dimethyl-2-thiazolyl)-2,5-diphenyl-2-H-tetrazolium bromide) (Sigma-Aldrich Corporation, Louis, MO, USA) for 3.5 h.” left out, “Control chemotherapeutics (carboplatin and shikonin) were used.” left out
(§4) Data are presented as means ± SD. […] The selectivity index was calculated as SI = IC50 of the compound in normal oral fibroblast cells/IC50 of the same compound for each oral cancer cell line (SCC-4, SCC-9, and SCC-25) and averaged when indicated.

HepG2 (liver cancer) = experiment: MTT cytotoxicity/selectivity, HepG2; format: cell-based; conditions: vs normal oral fibroblasts
Protocol: as §1
as §2, with “DMSO at the same concentration was used as a control for 100% cell viability. After 72 h, cells were incubated with 0.5 mg/mL of MTT reagent (3-(4,5-dimethyl-2-thiazolyl)-2,5-diphenyl-2-H-tetrazolium bromide) (Sigma-Aldrich Corporation, Louis, MO, USA) for 3.5 h.” left out, “Control chemotherapeutics (carboplatin and shikonin) were used.” left out
as §4

B16-F10 (melanoma) = experiment: MTT cytotoxicity/selectivity, B16-F10; format: cell-based; conditions: vs normal oral fibroblasts
Protocol: as §1
as §2, with “DMSO at the same concentration was used as a control for 100% cell viability. After 72 h, cells were incubated with 0.5 mg/mL of MTT reagent (3-(4,5-dimethyl-2-thiazolyl)-2,5-diphenyl-2-H-tetrazolium bromide) (Sigma-Aldrich Corporation, Louis, MO, USA) for 3.5 h.” left out, “Control chemotherapeutics (carboplatin and shikonin) were used.” left out
as §4

[4] = test system: esophageal squamous carcinoma cells; design: method as in PMID 31225674; conditions: inhibits RSK2 and induces intrinsic apoptosis in esophageal squamous carcinoma cells; cited from earlier work
[5] = Homo sapiens, SCC-9, 72 h, MTT, read-out: IC50 SCC-9 oral cancer

Compound: Triton X-100
- % Hemolysis (Mean ± SD) (human erythrocytes): 100% and 99.6 ± 2.51%

Compound: CC1(C)OC2=C(C(=O)c3ccccc3C2=O)C(Sc2ccc(F)cc2)C1Sc1ccc(F)cc1 (centres unmarked) [7f, 3,4-Bis((4-fluorophenyl)thio)-2,2-dimethyl-3,4-dihydro-2H-benzo[g]chromene-5,10-dione]
- IC50 (SCC-9 cells (OSCC cells); [5]): 35.3 µM
- SI (SCC-9) (SCC-9 cells (OSCC cells)): 1.1
- IC50 ([1]; Homo sapiens, Fibroblast, MTT): 40 µM

Compound: Cc1ccc(SC2C3=C(OC(C)(C)C2Sc2ccc(C)cc2)C(=O)c2ccccc2C3=O)cc1 (centres unmarked) [7d, 2,2-Dimethyl-3,4-bis(p-tolylthio)-3,4-dihydro-2H-benzo[g]chromene-5,10-dione]
- IC50 (SCC-9 cells (OSCC cells); [5]): 30.9 µM
- SI (SCC-9) (SCC-9 cells (OSCC cells)): 1.9
- IC50 ([1]; Homo sapiens, Fibroblast, MTT): 60.1 µM

Compound: CC(C)=CC[C@@H](O)C1=CC(=O)c2c(O)ccc(O)c2C1=O [Shikonin, shikonin, reference compound]
- IC50 (SCC-9 cells (OSCC cells); Homo sapiens, SCC-9, 72 h, read-out: IC50 SCC-9 oral cancer, 72 h, MTT): 2.1 µM
- SI (SCC-9) (SCC-9 cells (OSCC cells)): 1.0
- IC50 ([1]; Homo sapiens, Fibroblast): 2.2 µM
- IC50 (SCC-25 cells; Homo sapiens, SCC-25, 72 h): 0.6 µM
- IC50 (SCC-4 cells; Homo sapiens, SCC-4, 72 h): 1.6 µM
- average SI [2]: 2.0

Compound: Cc1ccccc1SC1C2=C(OC(C)(C)C1Sc1ccccc1C)C(=O)c1ccccc1C2=O (centres unmarked) [7b, 2,2-Dimethyl-3,4-bis(o-tolylthio)-3,4-dihydro-2H-benzo[g]chromene-5,10-dione]
- IC50 (SCC-9 cells (OSCC cells); [5]): 34.8 µM
- SI (SCC-9) (SCC-9 cells (OSCC cells)): 1.5
- IC50 ([1]; Homo sapiens, Fibroblast, MTT): 50.9 µM

Compound: CC1(C)OC2=C(C(=O)c3ccccc3C2=O)C(Sc2ccc(Cl)cc2)C1Sc1ccc(Cl)cc1 (centres unmarked) [7h, 3,4-Bis((4-chlorophenyl)thio)-2,2-dimethyl-3,4-dihydro-2H-benzo[g]chromene-5,10-dione]
- IC50 (SCC-9 cells (OSCC cells); [5]): 33.3 µM
- SI (SCC-9) (SCC-9 cells (OSCC cells)): 1.3
- IC50 ([1]; Homo sapiens, Fibroblast, MTT): 43 µM

Compound: N.N.O=C([O-])C1(C(=O)[O-])CCC1.[Pt+2] [Carboplatin, carboplatin, reference compound]
- IC50 (SCC-9 cells (OSCC cells); 72 h, MTT, read-out: IC50 SCC-9 oral cancer): 49.8 µM
- SI (SCC-9) (SCC-9 cells (OSCC cells)): 2.6
- IC50 ([1]; MTT): 128 µM
- IC50 (SCC-25 cells; 72 h, MTT): 38.3 µM
- selective index (SI) SCC-25 (SCC-25 cells; vs normal oral fibroblasts): 3.3
- IC50 (SCC-4 cells; 72 h, MTT): 27.7 µM
- selective index (SI) SCC-4 (SCC-4 cells; vs normal oral fibroblasts): 4.6
- average SI [2]: 3.5
- selective index (SI) HCT-116 colon cancer [3]: 2.5
- selective index (SI) HepG2 hepatocellular carcinoma (HepG2 (liver cancer)): 7.1
- selective index (SI) B16-F10 melanoma (B16-F10 (melanoma)): 5.5
- % Hemolysis (Mean ± SD) (human erythrocytes): 1.34 ± 0.10%

Compound: CC1(C)OC2=C(C(=O)c3ccccc3C2=O)C(Sc2ccc(O)cc2)C1Sc1ccc(O)cc1 (centres unmarked) [7i, 3,4-Bis((4-hydroxyphenyl)thio)-2,2-dimethyl-3,4-dihydro-2H-benzo[g]chromene-5,10-dione]
- IC50 (SCC-9 cells (OSCC cells); [5]): 17.2 µM
- SI (SCC-9) (SCC-9 cells (OSCC cells)): 1.9
- IC50 ([1]; Homo sapiens, Fibroblast, MTT): 32.6 µM

Compound: Cc1cccc(SC2C3=C(OC(C)(C)C2Sc2cccc(C)c2)C(=O)c2ccccc2C3=O)c1 (centres unmarked) [7c, 2,2-Dimethyl-3,4-bis(m-tolylthio)-3,4-dihydro-2H-benzo[g]chromene-5,10-dione]
- IC50 (SCC-9 cells (OSCC cells); [5]): 15.3 µM
- SI (SCC-9) (SCC-9 cells (OSCC cells)): 2.7
- IC50 ([1]; Homo sapiens, Fibroblast, MTT): 40.8 µM
- IC50 (SCC-25 cells; Homo sapiens, SCC-25, 72 h, MTT): 31.8 µM
- IC50 (SCC-4 cells; Homo sapiens, SCC-4, 72 h, MTT): 30.2 µM
- average SI [2]: 1.8

Compound: CC(C)=CCC1=C(O)C(=O)c2ccccc2C1=O [lapachol]
- IC50 [4]: 2 µM
